Results published in patent publication US10092570B2 (Incyte Corporation, priority 2011, dated 2018).

How the values were obtained:
PI3Kδ (p110δ/p85α) = PI3Kδ (p110δ/p85α) (Homo sapiens (Human), UniProt O00329); assay: Example A3: PI3Kδ scintillation proximity assay; format: biochemical; conditions: scintillation proximity assay, 20 μM ATP, 4 nM PI3Kδ; read-out: PI3Kδ SPA IC50
Procedure, shortened: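 p110δ/p85α (4 nM) phosphorylated 20 μM PIP2 with 20 μM ATP plus [γ-33P]ATP in MOPS pH 6.7, MgCl2, DTT, CHAPS, 0.5% DMSO, at RT. Stopped with EDTA/excess ATP, product captured on WGA SPA beads overnight and counted; IC50 from percent control activity versus log inhibitor.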

[1] = test system: Pfeiffer cell line (diffuse large B cell lymphoma); assay: Example B2: Pfeiffer cell proliferation assay; format: cell-based; conditions: Pfeiffer cells, [3H]-thymidine incorporation
Experimental: Pfeiffer cell line (diffuse large B cell lymphoma) are purchased from ATCC (Manassas, Va.) and maintained in the culture medium recommended (RPMI and 10% FBS). To measure the anti-proliferation activity of the compounds, the Pfeiffer cells are plated with the culture medium (2×10^3 cells/well/per 200 μl) into 96-well ultra-low binding plates (Corning, Corning, N.Y.), in the presence or absence of a concentration range of test compounds. After 3-4 days, [^3H]-thymidine (1 μCi/well) (PerkinElmer, Boston, Mass.) in PBS is then added to the cell culture for an additional 12 hours before the incorporated radioactivity is separated by filtration with water through GF/B filters (Packard Bioscience, Meridenj, Conn.) and measured by liquid scintillation counting with a TopCount (Packard Bioscience).

Sequence of PI3Kδ (p110δ/p85α) (O00329 whole entry): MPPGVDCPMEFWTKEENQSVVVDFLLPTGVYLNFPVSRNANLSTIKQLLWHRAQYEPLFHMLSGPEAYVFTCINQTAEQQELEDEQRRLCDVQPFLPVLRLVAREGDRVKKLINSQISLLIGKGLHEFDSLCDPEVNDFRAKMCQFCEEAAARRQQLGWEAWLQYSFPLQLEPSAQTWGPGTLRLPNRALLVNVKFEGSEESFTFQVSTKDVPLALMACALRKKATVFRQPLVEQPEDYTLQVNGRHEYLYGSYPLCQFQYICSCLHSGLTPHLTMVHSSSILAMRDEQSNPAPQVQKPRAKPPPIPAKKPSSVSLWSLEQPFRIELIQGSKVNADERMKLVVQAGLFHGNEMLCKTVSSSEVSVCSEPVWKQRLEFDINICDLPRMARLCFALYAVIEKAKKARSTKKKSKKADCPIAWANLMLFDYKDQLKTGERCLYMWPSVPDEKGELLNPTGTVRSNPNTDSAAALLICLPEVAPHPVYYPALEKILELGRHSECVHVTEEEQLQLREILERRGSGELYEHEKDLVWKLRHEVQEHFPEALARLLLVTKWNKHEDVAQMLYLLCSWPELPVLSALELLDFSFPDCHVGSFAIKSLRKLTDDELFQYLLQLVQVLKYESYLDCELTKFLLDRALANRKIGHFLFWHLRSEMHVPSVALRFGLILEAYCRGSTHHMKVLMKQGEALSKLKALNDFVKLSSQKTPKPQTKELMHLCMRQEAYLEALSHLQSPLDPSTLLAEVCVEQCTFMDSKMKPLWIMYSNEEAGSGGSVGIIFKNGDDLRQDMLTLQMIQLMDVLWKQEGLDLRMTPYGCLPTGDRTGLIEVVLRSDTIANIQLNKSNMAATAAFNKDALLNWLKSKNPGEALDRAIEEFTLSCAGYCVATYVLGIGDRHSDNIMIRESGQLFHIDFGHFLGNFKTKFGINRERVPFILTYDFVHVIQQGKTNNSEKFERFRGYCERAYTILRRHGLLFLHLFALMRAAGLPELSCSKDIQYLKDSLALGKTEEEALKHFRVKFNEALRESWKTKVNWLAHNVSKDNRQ
Sequence of PI3Kδ (p110δ/p85α) (P27986 whole entry partner): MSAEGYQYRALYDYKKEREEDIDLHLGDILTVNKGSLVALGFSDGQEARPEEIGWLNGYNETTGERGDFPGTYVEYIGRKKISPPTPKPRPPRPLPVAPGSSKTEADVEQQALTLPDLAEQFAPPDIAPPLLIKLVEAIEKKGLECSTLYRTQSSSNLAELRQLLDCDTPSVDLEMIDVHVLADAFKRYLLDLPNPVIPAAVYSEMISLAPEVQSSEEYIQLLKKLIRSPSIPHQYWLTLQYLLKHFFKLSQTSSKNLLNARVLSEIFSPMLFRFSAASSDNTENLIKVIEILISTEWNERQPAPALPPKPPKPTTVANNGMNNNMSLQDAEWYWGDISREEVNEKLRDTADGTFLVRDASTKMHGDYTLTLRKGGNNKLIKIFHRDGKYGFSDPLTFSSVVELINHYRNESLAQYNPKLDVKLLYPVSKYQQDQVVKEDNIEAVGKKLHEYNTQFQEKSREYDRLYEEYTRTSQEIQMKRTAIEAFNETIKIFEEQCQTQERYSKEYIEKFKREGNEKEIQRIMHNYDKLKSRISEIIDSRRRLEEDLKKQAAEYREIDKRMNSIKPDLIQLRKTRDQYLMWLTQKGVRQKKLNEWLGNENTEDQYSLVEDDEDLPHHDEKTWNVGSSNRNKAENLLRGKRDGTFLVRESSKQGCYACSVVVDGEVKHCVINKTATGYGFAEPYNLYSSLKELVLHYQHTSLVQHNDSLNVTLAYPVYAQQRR

`COc1c(C(C)n2nc(C)c3c(N)ncnc32)cc(Cl)c(C)c1C1CN([C@@H](C)CO)C1` (some centres unmarked) [Example 157] showed an IC50 (PI3Kδ (p110δ/p85α)) of under 0.01 µM and an IC50 ([1]; Homo sapiens, Pfeiffer) of 0.01 to 0.05 µM.
In the case of `COc1c(C(C)n2nc(C)c3c(N)ncnc32)cc(Cl)c(C)c1C1CN(CCO)C1` (single isomer, unassigned) [Example 104, 2-(3-{3-[1-(4-Amino-3-methyl-1H-pyrazolo[3,4-d]pyrimidin-1-yl)ethyl]-5-chloro-2-methoxy-6-methylphenyl}azetidin-1-yl)ethanol], the IC50 (PI3Kδ (p110δ/p85α)) is reported as under 0.01 µM and the IC50 ([1]; Homo sapiens, Pfeiffer) is reported as 0.01 to 0.05 µM.
In the case of `CCOc1c(C(C)n2nc(C)c3c(N)ncnc32)cc(Cl)c(C#N)c1C1CN(C[C@H](C)O)C1` (stereo partly drawn) [Example 220, 4-[1-(4-Amino-3-methyl-1H-pyrazolo[3,4-d]pyrimidin-1-yl)ethyl]-6-chloro-3-ethoxy-2-{1-[(2S)-2-hydroxypropyl]azetidin-3-yl}benzonitrile], the IC50 (PI3Kδ (p110δ/p85α)) is reported as under 0.01 µM and the IC50 ([1]; Homo sapiens, Pfeiffer) is reported as under 0.01 µM.
`COc1c(C(C)n2nc(C)c3c(N)ncnc32)cc(Cl)c(C#N)c1C1CN(CCO)C1` (single isomer, unassigned) [Example 268, 4-[1-(4-Amino-3-methyl-1H-pyrazolo[3,4-d]pyrimidin-1-yl)ethyl]-6-chloro-2-[1-(2-hydroxyethyl)azetidin-3-yl]-3-methoxybenzonitrile] was tested, and the IC50 (PI3Kδ (p110δ/p85α)) was under 0.01 µM and the IC50 ([1]; Homo sapiens, Pfeiffer) was under 0.01 µM.
Compound `COc1c(C(C)n2nc(C)c3c(N)ncnc32)cc(Cl)c(C#N)c1C1CN(C)C1` (single isomer, unassigned) [Example 262, 4-[1-(4-Amino-3-methyl-1H-pyrazolo[3,4-d]pyrimidin-1-yl)ethyl]-6-chloro-3-methoxy-2-(1-methylazetidin-3-yl)benzonitrile] has an IC50 (PI3Kδ (p110δ/p85α)) of under 0.01 µM and an IC50 ([1]; Homo sapiens, Pfeiffer) of under 0.01 µM.
Work on `COc1c(C(C)n2nc(C)c3c(N)ncnc32)cc(Cl)c(C)c1C1CN(C[C@@H](C)O)C1` (single isomer, unassigned) [Example 103] yielded an IC50 (PI3Kδ (p110δ/p85α)) of under 0.01 µM and an IC50 [1] of 0.01 to 0.05 µM.
Compound `CCOc1c(C(C)n2nc(C)c3c(N)ncnc32)cc(Cl)c(F)c1C1CN(C(C)C)C1` (centres unmarked) [Example 139, 1-{1-[5-Chloro-2-ethoxy-4-fluoro-3-(1-isopropylazetidin-3-yl)phenyl]ethyl}-3-methyl-1H-pyrazolo[3,4-d]pyrimidin-4-amine] has an IC50 (PI3Kδ (p110δ/p85α)) of under 0.01 µM and an IC50 ([1]; Homo sapiens, Pfeiffer) of under 0.01 µM.
For `COc1c(C(C)n2nc(C)c3c(N)ncnc32)cc(C)c(C#N)c1C1CN(C[C@H](C)O)C1` (single isomer, unassigned) [Example 315], the IC50 (PI3Kδ (p110δ/p85α)) was under 0.01 µM and the IC50 ([1]; Homo sapiens, Pfeiffer) was under 0.01 µM.
In the case of `COc1c(C(C)n2nc(C)c3c(N)ncnc32)cc(Cl)c(C)c1C1CN(C(C)CF)C1` (centres unmarked) [Example 114, 1-(1-{5-Chloro-3-[1-(2-fluoro-1-methylethyl)azetidin-3-yl]-2-methoxy-4-methylphenyl}ethyl)-3-methyl-1H-pyrazolo[3,4-d]pyrimidin-4-amine], the IC50 (PI3Kδ (p110δ/p85α)) is reported as under 0.01 µM and the IC50 ([1]; Homo sapiens, Pfeiffer) is reported as under 0.01 µM.
Compound `CCOc1c(C(C)n2nc(C)c3c(N)ncnc32)cc(Cl)c(C)c1C1CN(C[C@H](C)O)C1` (stereo partly drawn) [Example 96, (2S)-1-(3-{3-[1-(4-Amino-3-methyl-1H-pyrazolo[3,4-d]pyrimidin-1-yl)ethyl]-5-chloro-2-ethoxy-6-methylphenyl}azetidin-1-yl)propan-2-ol bis(trifluoroacetate)] has an IC50 (PI3Kδ (p110δ/p85α)) of under 0.01 µM and an IC50 ([1]; Homo sapiens, Pfeiffer) of under 0.01 µM.
Work on `COc1c(C(C)n2nc(C)c3c(N)ncnc32)cc(Cl)c(C#N)c1C1CN(C[C@H](C)O)C1` (stereo partly drawn) [Example 269, 4-[1-(4-Amino-3-methyl-1H-pyrazolo[3,4-d]pyrimidin-1-yl)ethyl]-6-chloro-2-{1-[(2S)-2-hydroxypropyl]azetidin-3-yl}-3-methoxybenzonitrile] yielded an IC50 (PI3Kδ (p110δ/p85α)) of under 0.01 µM and an IC50 ([1]; Homo sapiens, Pfeiffer) of under 0.01 µM.
Compound `CCOc1c(C(C)n2nc(C)c3c(N)ncnc32)cc(Cl)c(C#N)c1C1CN(C)C1` (single isomer, unassigned) [Example 213, 4-[1-(4-Amino-3-methyl-1H-pyrazolo[3,4-d]pyrimidin-1-yl)ethyl]-6-chloro-3-ethoxy-2-(1-methylazetidin-3-yl)benzonitrile] has an IC50 (PI3Kδ (p110δ/p85α)) of under 0.01 µM and an IC50 ([1]; Homo sapiens, Pfeiffer) of under 0.01 µM.
`COc1c(C(C)n2nc(C)c3c(N)ncnc32)cc(Cl)c(C)c1C1CN(CC(C)O)C1` (stereo in doubt) [Example 102, (2S)-1-(3-{3-[1-(4-Amino-3-methyl-1H-pyrazolo[3,4-d]pyrimidin-1-yl)ethyl]-5-chloro-2-methoxy-6-methylphenyl}azetidin-1-yl)propan-2-ol] was tested, and the IC50 (PI3Kδ (p110δ/p85α)) was under 0.01 µM and the IC50 ([1]; Homo sapiens, Pfeiffer) was under 0.01 µM.
For `COc1c(C(C)n2nc(C)c3c(N)ncnc32)cc(Cl)c(Cl)c1C1CN(CCO)C1` (single isomer, unassigned) [Example 300, 2-(3-{3-[1-(4-Amino-3-methyl-1H-pyrazolo[3,4-d]pyrimidin-1-yl)ethyl]-5,6-dichloro-2-methoxyphenyl}azetidin-1-yl)ethano], the IC50 ([1]; Homo sapiens, Pfeiffer) was under 0.01 µM.
Compound `COc1c(C(C)n2nc(C)c3c(N)ncnc32)cc(Cl)c(C)c1-c1cncc(C(=O)N2CC(C#N)C2)c1` (single isomer, unassigned) [Example 177, 1-[(5-{3-[1-(4-amino-3-methyl-1H-pyrazolo[3,4-d]pyrimidin-1-yl)ethyl]-5-chloro-2-methoxy-6-methylphenyl}pyridin-3-yl)carbonyl]azetidine-3-carbonitrile] has an IC50 ([1]; Homo sapiens, Pfeiffer) of under 0.01 µM.
`CCOc1c(C(C)n2nc(C)c3c(N)ncnc32)cc(C)c(C#N)c1-c1ccc(C(=O)N(C)C)nc1` (centres unmarked) [Example 314, 5-{3-[1-(4-amino-3-methyl-1H-pyrazolo[3,4-d]pyrimidin-1-yl)ethyl]-6-cyano-2-ethoxy-5-methylphenyl}-N,N-dimethylpyridine-2-carboxamide] was tested, and the IC50 ([1]; Homo sapiens, Pfeiffer) was under 0.01 µM.
`COc1c(C(C)n2nc(C)c3c(N)ncnc32)cc(Cl)c(C)c1-c1ccc(C(=O)N(C)C)nc1` (centres unmarked) [Example 167, 5-(3-(1-(4-Amino-3-methyl-1H-pyrazolo[3,4-d]pyrimidin-1-yl)ethyl)-5-chloro-2-methoxy-6-methylphenyl)-N,N-dimethylpicolinamide bis(2,2,2-trifluoroacetate)] gave an IC50 ([1]; Homo sapiens, Pfeiffer) of under 0.01 µM.
`CCOc1c(C(C)n2nc(C)c3c(N)ncnc32)cc(Cl)c(C#N)c1C1CN(CCO)C1` (centres unmarked) [Example 219, 4-[1-(4-Amino-3-methyl-1H-pyrazolo[3,4-d]pyrimidin-1-yl)ethyl]-6-chloro-3-ethoxy-2-[1-(2-hydroxyethyl)azetidin-3-yl]benzonitrile] showed an IC50 ([1]; Homo sapiens, Pfeiffer) of under 0.01 µM.
With `CCOc1c(C(C)n2nc(C)c3c(N)ncnc32)cc(Cl)c(C#N)c1C1CN(C[C@@H](C)O)C1` (stereo partly drawn) [Example 221, 4-[1-(4-Amino-3-methyl-1H-pyrazolo[3,4-d]pyrimidin-1-yl)ethyl]-6-chloro-3-ethoxy-2-{1-[(2R)-2-hydroxypropyl]azetidin-3-yl}benzonitrile] the IC50 (PI3Kδ (p110δ/p85α)) was under 0.01 µM and the IC50 ([1]; Homo sapiens, Pfeiffer) was under 0.01 µM.
`COc1c(C(C)n2nc(C)c3c(N)ncnc32)cc(Cl)c(C#N)c1C1CN(C(C)C)C1` (single isomer, unassigned) [Example 264, 4-[1-(4-Amino-3-methyl-1H-pyrazolo[3,4-d]pyrimidin-1-yl)ethyl]-6-chloro-2-(1-isopropylazetidin-3-yl)-3-methoxybenzonitrile] gave an IC50 ([1]; Homo sapiens, Pfeiffer) of under 0.01 µM.
`CCOc1c(C(C)n2nc(C)c3c(N)ncnc32)cc(Cl)c(C)c1-c1ccc(C(=O)N(C)C)nc1` (centres unmarked) [Example 195, 5-(3-(1-(4-Amino-3-methyl-1H-pyrazolo[3,4-d]pyrimidin-1-yl)ethyl)-5-chloro-2-ethoxy-6-methylphenyl)-N,N-dimethylpicolinamide bis(2,2,2-trifluoroacetate)] gave an IC50 ([1]; Homo sapiens, Pfeiffer) of under 0.01 µM.
For `CCOc1c(C(C)n2nc(C)c3c(N)ncnc32)cc(Cl)c(F)c1C1CN(C[C@H](C)O)C1` (stereo partly drawn) [Example 149, (2S)-1-(3-{3-[1-(4-Amino-3-methyl-1H-pyrazolo[3,4-d]pyrimidin-1-yl)ethyl]-5-chloro-2-ethoxy-6-fluorophenyl}azetidin-1-yl)propan-2-ol], the IC50 ([1]; Homo sapiens, Pfeiffer) was under 0.01 µM.
`COc1c(C(C)n2nc(C)c3c(N)ncnc32)cc(Cl)c(C#N)c1C1CN(CC(C)(C)O)C1` (single isomer, unassigned) [Example 271, 4-[1-(4-Amino-3-methyl-1H-pyrazolo[3,4-d]pyrimidin-1-yl)ethyl]-6-chloro-2-[1-(2-hydroxy-2-methylpropyl)azetidin-3-yl]-3-methoxybenzonitrile] showed an IC50 ([1]; Homo sapiens, Pfeiffer) of under 0.01 µM.
`CCOc1c(C(C)n2nc(C)c3c(N)ncnc32)cc(Cl)c(C#N)c1C1CN(C(=O)NC)C1` (single isomer, unassigned) [Example 257, 3-{3-[1-(4-Amino-3-methyl-1H-pyrazolo[3,4-d]pyrimidin-1-yl)ethyl]-5-chloro-6-cyano-2-ethoxyphenyl}-N-methylazetidine-1-carboxamide] was tested, and the IC50 ([1]; Homo sapiens, Pfeiffer) was under 0.01 µM.
With `COc1c(C(C)n2nc(C)c3c(N)ncnc32)cc(Cl)c(Cl)c1C1CN(CC(C)(C)O)C1` (single isomer, unassigned) [Example 303, 1-(3-{3-[1-(4-Amino-3-methyl-1H-pyrazolo[3,4-d]pyrimidin-1-yl)ethyl]-5,6-dichloro-2-methoxyphenyl}azetidin-1-yl)-2-methylpropan-2-ol] the IC50 ([1]; Homo sapiens, Pfeiffer) was under 0.01 µM.
Work on `COc1c(C(C)n2nc(C(F)F)c3c(N)ncnc32)cc(Cl)c(F)c1C1CN(C)C1` (racemic) [Example 75, 1-{1-[5-Chloro-4-fluoro-2-methoxy-3-(1-methylazetidin-3-yl)phenyl]ethyl}-3-(difluoromethyl)-1H-pyrazolo[3,4-d]pyrimidin-4-amine] yielded an IC50 ([1]; Homo sapiens, Pfeiffer) of under 0.01 µM.
Compound `CCOc1c(C(C)n2nc(C)c3c(N)ncnc32)cc(Cl)c(C)c1-c1cncc(S(C)(=O)=O)c1` (single isomer, unassigned) [Example 198] has an IC50 ([1]; Homo sapiens, Pfeiffer) of under 0.01 µM.
